Assay results taken from publication PMC9143821, “Design and Synthesis of a Novel 4-aryl-N-(2-alkoxythieno [2,3-b]pyrazine-3-yl)-4-arylpiperazine-1-carboxamide DGG200064 Showed Therapeutic Effect on Colon Cancer through G2/M Arrest” (Pharmaceuticals, 2022).
Where a SMILES comes first, the peptide text is derived from it. The star is where a group is joined. Cbz = O=C(OCc1ccccc1)*

Assays:
[1] = tested on: KM12; assay: SRB assay, colon cancer cell growth inhibition; assay type: cell-based; conditions: Homo sapiens, 48 h
Procedure: (§1) A series of 4-phenyl-N-(thieno[2,3-b]pyrazin-3-yl)piperazine-1-carboxamides derivatives 7a–7i were tested for the colon cancer cell growth inhibition effect using the SRB assay (Table 2). […] Compounds 7a and 7b, containing chlorine at the C6 position of thieno[2,3-b]pyrazine ring, have weaker anticancer activity than its proton-containing derivatives 7c–7i. On the other hand, 7c has shown higher inhibition activity than 7d with methyl substituents at the C3 and C5 positions of the phenyl ring. […] Substitutions with one fluorine atom in the phenyl ring could not improve the inhibition effect of the compounds 7g–7h.
(§2) The HCT116, HCT8, KM12, HCT15, HT29, COLO-205, SW620 cell line was obtained from the National Cancer Institute (Material Transfer Agreement number: 2702–09). DLD1 cell line was obtained from the Korean cell line bank. Cells were cultured in complete Roswell Park Memorial Institute (RPMI) 1640 medium (Hyclone, South Logan, UT, USA) containing 10% fetal bovine serum (Hyclone, South Logan, UT, USA) in an atmosphere of 5% CO2 and 100% humidity at 37 °C. A small interfering RNA (siRNA) duplex targeting human c-Jun and FBXW7 (Genolution, Seoul, Korea) were introduced into cells using Lipofector-EXT (AptaBio, Yongin, Korea), according to the manufacturer’s instructions. As negative controls, cells were incubated with Lipofector-EXT (AptaBio, Yongin, KOR) and a negative siRNA (Genolution, Seoul, Korea).
(§3) Cells (100 μL containing 5000–10,000 cells/well) were incubated in 96 well microtiter plates. After 24 h, drugs were added (100 μL) to each well and the cultures were incubated for 48 h at 37 °C. The cells were then fixed in TCA (50 μL per well). The plates were incubated for a minimum of 1 h or a maximum of 3 h at 4 °C. The liquid was removed from the plate, which was then rinsed five times with water and allowed to dry at room temperature (rt) for approximately 12–24 h. The fixed cells were stained with 100 μL Sulforhodamine B (SRB) solution for 5 min at rt. After staining, the plate was washed three times with 1% glacial acetic acid and dried at rt for approximately 12–24 h. The SRB was then solubilized in 10 mM Tris buffer, and the absorbance was read at 515 nm. The effect of the drugs was expressed as GI50 (50% growth inhibition).

[2] = tested on: Colo205; assay: SRB assay, colon cancer cell growth inhibition; assay type: cell-based; conditions: Homo sapiens, COLO 205, 48 h
Procedure: as §1, §2, §3

[3] = tested on: HCT15; assay: SRB assay, colon cancer cell growth inhibition; assay type: cell-based; conditions: Homo sapiens, HCT-15, 48 h
Procedure: as §1, §2, §3

[4] = tested on: HCT116; assay: SRB assay, colon cancer cell growth inhibition; assay type: cell-based; conditions: Homo sapiens, HCT-116
Procedure: as §1, §2, §3

[5] = tested on: SW620; assay: SRB assay, colon cancer cell growth inhibition; assay type: cell-based; conditions: Homo sapiens, SW-620, 48 h
Procedure: as §1, §2, §3

[6] = tested on: HCT8; assay: SRB assay, colon cancer cell growth inhibition; assay type: cell-based; conditions: Homo sapiens, HCT-8, 48 h
Procedure: as §1, §2, §3

[7] = tested on: HT29; assay: SRB assay, colon cancer cell growth inhibition; assay type: cell-based; conditions: Homo sapiens, HT-29, 48 h
Procedure: as §1, §2, §3

[8] = Pharmacokinetics in SD rats; assay type: in vivo; conditions: male, Sprague-Dawley, rat, plasma
Procedure: Sprague–Dawley rats (adult males, 250–300 g) were fasted overnight, and the femoral vein (for iv administration of the compound) and jugular vein (for blood sampling) of each rat were cannulated with polyethylene tubing. The selected compounds dissolved in 30% polyethylene glycol (PEG) in saline were administered either intravenously or orally. At various time points after administration, blood samples (0.5 mL) were collected from the jugular vein, transferred to heparin-coated tubes, centrifuged to separate off the plasma. The plasma was stored at −80 °C until assayed. Compound concentrations in plasma were determined by LC/MS/MS analysis (API4000 mass spectrometer, Applied Biosystem, Waltham, MA, USA). Pharmacokinetic parameters were analyzed using the WinNonlin software program. The area under the curve (AUC) was calculated using the trapezoidal rule extrapolated to infinity. The terminal elimination half-life, systemic clearance, and volume of distribution at steady state were determined. The extent of absolute oral bioavailability (F) was estimated by comparing the AUC values after intravenous and oral administration of the compounds.

[9] = tested on: FBXW7/c-Jun interaction; assay: Immunoprecipitation, ubiquitination and FBXW7/c-Jun interaction; assay type: cell-based, human; conditions: HCT116 and DLD1; DGG200064 50 nM 18 h; MG132 10 μM 6 h
Description: To investigate whether the ubiquitination of c-Jun is suppressed through the inhibition of c-Jun and FBXW7 binding by DGG200064, c-Jun immunoprecipitation was done to observe protein–protein interaction (Figure 4). E3 ligase, such as FBXW7, binds the protein to the ubiquitin chain through covalent bonds and rapidly degrades the protein through 26S proteasome. When treated with MG132 as a proteasome inhibitor, the ubiquitination of c-Jun increased compared to both control HCT116 and DLD1 cells. In contrast, the c-Jun ubiquitination was inhibited by DGG200064. The binding between c-Jun and FBXW7 was reduced with DGG200064 treatment. The FBXW7 protein, also known as CDC4, is a component of the SCF complex ubiquitin ligase and is known as a modulator of several substrates including cyclin E, c-Myc, c-Jun, and Notch. To check the selectivity of DGG200064 towards FBXW7 substrates, the change of c-Jun, cyclin E, and c-Myc by DGG200064 was analyzed. […] Cyclin E immunoprecipitation was done to test whether the ubiquitination of cyclin E by FBXW7 is inhibited by DGG200064 in HCT116 (Figure S2b, Supplementary Materials). There were no changes in cyclin E ubiquitination with DGG200064 treatment.
To identified ubiquitination of c-Jun by DGG200064, HCT116 cells were treated with/without MG132 (10 μM) for 6h, DGG200064 (50 nM) for 18 h. The cell lysate was prepared using RIPA buffer for immunoprecipitation. Each lysate was mixed with antibodies (1 μg/mL) of c-Jun or MYC at 4 °C overnight in immunoprecipitation buffer containing 50 mM Tris-Cl,150 mM NaCl, 1 mM EDTA, 0.5% Triton X-100, pH 7.4, and reacted with 10 μL of protein A/G beads UltraLink Resin (50:50 resin: buffer slurry condition) (Peirce, #35133) for 2 h on RT for precipitation. After reaction and centrifugation at 3000 rpm for 3 min, the immunoprecipitated samples were washed with 500 μL of immunoprecipitation buffer by tapping and centrifuged. The washing was repeated five times before western blotting.

[10] = quoted in docking discussion, cell line not stated there (values match HCT116)

Compound	GI50 [1]	GI50 [2]	GI50 [3]	GI50 ([4]; HCT116, SRB, 48 h)	GI50 [4, 10]	GI50 [5]	GI50 [6]	GI50 [7]	Cmax ([8]; no unit, species or route stated in b12 (7c value equals SD rats PO of Table 3))	bioavailability ([8]; species and route not stated in b12 (7c value equals SD rats PO of Table 3), read-out: bioavailability (F))	c-Jun ubiquitination [9]
COc1cc(OC)cc(N2CCN(C(=O)Nc3nc4sc(Cl)cc4nc3OC)CC2)c1 [Compound 7a, N-(6-chloro-2-methoxythieno[2,3-b]pyrazin-3-yl)-4-(3,5dimethoxyphenyl)piperazine-1-carboxamide]	273 nM	173 nM	484 nM	344 nM	≥ 100 nM	427 nM	761 nM	408 nM	–	–	–
COc1nc2cc(Cl)sc2nc1NC(=O)N1CCN(c2cc(C)cc(C)c2)CC1 [Compound 7b, N-(6-chloro-2-methoxythieno[2,3-b]pyrazin-3-yl)-4-(3,5-dimethylphenyl)piperazine-1-carboxamide]	244 nM	900 nM	437 nM	244 nM	–	273 nM	900 nM	342 nM	–	–	–
COc1nc2ccsc2nc1NC(=O)N1CCN(c2cc(C)cc(C)c2)CC1 [Compound 7d, 4-(3,5-Dimethylphenyl)-N-(2-methoxythieno[2,3-b]pyrazin-3-yl)piperazine-1 carboxamide]	32 nM	40 nM	38 nM	33 nM	–	38 nM	59 nM	26 nM	–	–	–
COc1nc2ccsc2nc1NC(=O)N1CCN(c2cc(F)cc(F)c2)CC1 [Compound 7e, 4-(3,5-Difluorophenyl)-N-(2-methoxythieno[2,3-b]pyrazin-3-yl)piperazine-1-carboxamide]	426 nM	287 nM	507 nM	307 nM	≥ 100 nM	288 nM	269 nM	672 nM	–	–	–
COc1cc(C)cc(N2CCN(C(=O)Nc3nc4sccc4nc3OC)CC2)c1 [Compound 7f, 4-(3-methoxy-5-methylphenyl)-N-(2-methoxythieno[2,3-b]pyrazin-3-yl)piperazine-1-carboxamide]	21 nM	28 nM	36 nM	1.9 nM	–	34 nM	37 nM	21 nM	195 ng/mL	21.8%	–
COc1cc(F)cc(N2CCN(C(=O)Nc3nc4sccc4nc3OC)CC2)c1 [Compound 7g, 4-(3-Fluoro-5-methoxyphenyl)-N-(2-methoxythieno[2,3-b]pyrazin-3-yl)piperazine-1-carboxamide]	22 nM	14 nM	30 nM	45 nM	–	29 nM	39 nM	57 nM	–	–	–
COc1nc2ccsc2nc1NC(=O)N1CCN(c2cc(C)cc(F)c2)CC1 [Compound 7h, 4-(3-Fluoro-5-methylphenyl)-N-(2-methoxythieno[2,3-b]pyrazin-3-yl)piperazine-1-carboxamide]	38 nM	28 nM	42 nM	32 nM	–	40 nM	51 nM	29 nM	–	–	–
CCOc1nc2ccsc2nc1NC(=O)N1CCN(c2cc(OC)cc(OC)c2)CC1 [Compound 7i, 4-(3,5-dimethoxyphenyl)-N-(2-ethoxythieno[2,3-b]pyrazin-3-yl)piperazine-1-carboxamide]	74 nM	35 nM	68 nM	71 nM	–	53 nM	58 nM	35 nM	–	–	–
CC(C)C[C@@H](C=O)NC(=O)[C@H](CC(C)C)NC(=O)[C@H](CC(C)C)NC(=O)OCc1ccccc1 [MG132, reference compound] (Cbz-Leu-Leu-Leu-aldehyde)	–	–	–	–	–	–	–	–	–	–	increased
